# Data taken from patent US6727257B1, “5-(heterocyclic alkyl)-6-aryl-dihydropyrimidines” (Synaptic Pharmaceutical Corporation, priority 1994, dated 2004).
# Where a name gives a salt, the structure may show the parent alone.
row,SMILES,melting point
1,"COC(=O)C1=C(C)N=C(C)N(CCCC(O)CN2CCC(c3ccccn3)CC2)C1c1ccc(F)c(F)c1 (single isomer, unassigned; (+)) (as salt: HCl) [Example 62, (+)-6-(3,4-Difluorophenyl)-1,6-dihydro-1-(4-hydroxy-5-(4-(2-pyridyl)piperidin-1-yl)pentyl)-5-methoxycarbonyl-2,4-dimethylpyrimidine]",163 to 165 °C
2,COCN1C(C)=NC(C)=C(C(=O)NCCCN2CCC(C(=O)OC)(c3ccccc3)CC2)C1c1ccc(F)c(F)c1 (stereo not drawn),53 to 57 °C
3,"COC(=O)C1=C(C)N=C(C)N(CCCCCN2CCC(C(=O)OC)(c3ccccc3)CC2)C1c1ccc(F)c(F)c1 (stereo not drawn) (as salt: HCl) [Example 23, 6-(3,4-Difluorophenyl)-1,6-dihydro-5-methoxycarbonyl-1-(5-(4-methoxycarbonyl-4-phenylpiperidin-1-yl)-pentyl)-2,4-dimethylpyrimidine]",170 to 176 °C
4,"COC(=O)C1=C(C)NC(=O)N(C(=O)NCCCN2CCC(c3ccccn3)CC2)C1c1ccc(F)c(F)c1 (stereo not drawn) (as salt: hydrochloride) [Example 21, 6-(3,4-Difluorophenyl)-5-methoxycarbonyl-4-methyl-2-oxo-1-{N-[4-(2-pyridyl)-piperidine-1-yl]propyl)carboxamido-1,2,3,6-tetrahydropyrimidine Dihydrochloride]",170 to 174 °C
5,"COC(=O)C1=C(C)N=C(C)N(CCCCCNCCCc2ccccc2)C1c1ccc(F)c(F)c1 (stereo not drawn) (as salt: HCl) [Example 61, 6-(3,4-Difluorophenyl)-1,6-dihydro-5-methoxycarbonyl-2,4-dimethyl-1-(5-(3-phenylpropylamino)pentyl)pyrimidine]",95 to 97 °C
6,CNC(=O)C1=C(C)N=C(C)N(CCCCCN2CCC(C(=O)OC)(c3ccccc3)CC2)C1c1ccc(F)cc1F (stereo not drawn) (as salt: HCl),152 to 155 °C
